Key:
[1] = Projected single-dose CL and Vss values in humans (allometric scaling of mouse, rat, dog, monkey IV PK); settings: human, projected by allometric scaling from single-dose IV PK
Description: Allometric scaling for the prediction of human Clearance and Volume of Distribution was based on interspecies simple allometric scaling of mouse, rat, dog, and cynomolgus monkey intravenous pharmacokinetic parameters (Boxenbaum, J Pharmacokinet Biopharm 10:201-27, 1982). Prediction of human CL was performed by extrapolating pre-clinical species' plasma intravenous clearance. The ‘rule of exponents’ (Mahmood & Balian, Life Sci 59:579-85, 1996) was examined in this prediction, where it has been proposed that, when the exponent of simple allometry lies between […] and 0.99, a correction factor based on Maximum Life Span (MLP) of this species can be applied and, when the exponent of simple allometry is greater than 1.0, a correction factor based on Brain Weight (BrW) can be applied, or a protein binding correction can be applied when available. In a similar manner, simple allometric scaling was employed to predict human Volume of Distribution. This method has been used successfully for varied drugs (Ward & Smith, Drug Metab Dispos 32:612-19, 2004; McGinnity et al., Curr Drug Metab 8:463-79, 2007).

[2] = system: bovine cardiac myofibrils; test: Myofibril assay (ATPase activity of skinned bovine cardiac myofibrils, PK/LDH-coupled); type: biochemical; settings: inhibition of steady-state ATPase of bovine cardiac myofibrils; CaCl2 for 50% or 75% activation
Description: To evaluate the effect of compounds on the ATPase activity of full-length cardiac myosin in the context of the native sarcomere, skinned myofibril assays were performed. Bovine cardiac myofibrils were obtained by homogenizing bovine cardiac left ventricular tissue in the presence of a detergent such as triton X-100. Such treatment removes membranes and a majority of the soluble cytoplasmic proteins but leaves intact the cardiac sarcomeric acto-myosin apparatus. Myofibril preparations retain the ability to hydrolyze ATP in a Ca^2+ regulated manner. ATPase activities of such myofibril preparations in the presence and absence of compounds were assayed at Ca^2+ concentrations activating to a defined fraction of the maximal rate (i.e., […], 75%). Small molecule agents were assessed for their ability to inhibit the steady-state ATPase activity of bovine cardiac myofibrils using pyruvate kinase and lactate dehydrogenase (PK/LDH)-coupled enzyme system. This assay regenerates myosin-produced ADP into ATP by oxidizing NADH, producing an absorbance change at 340 nm. Prior to testing small molecule agents, the bovine cardiac myofibrils were assessed for their calcium responsiveness and the calcium concentration that achieves either a 50% (pCa50) or 75% (pCa75) activation of the myofibril system was chosen as the final condition for assessing the inhibitory activity of the small molecule agents. All enzymatic activity was measured in a buffered solution containing 12 mM PIPES (piperazine-N,N′-bis(2-ethanesulfonic acid), 2 mM magnesium chloride at pH 6.8 (PM 12 buffer). Final assay conditions were 1 mg/mL of bovine cardiac myofibrils, 4 U/mL pyruvate kinase, 6 U/mL lactate dehydrogenase, 50 μM ATP, 0.1 mg/mL BSA (bovine serum albumin), 10 ppm antifoam, 1 mM DTT, 0.5 mM NADH, 1.5 mM PEP, 0.6 mM EGTA, and an amount of CaCl2 sufficient to achieve either 50% or 75% activation of the myofibril ATPase activity. Results for compounds tested are provided in Table A. Compounds tested were prepared in accordance with the synthetic procedures described herein.

[3] = Dog single dose pharmacokinetics; type: in vivo, beagle dogs; settings: male, beagle, plasma, IV, read-out: t½ (converted)
Description: Non-naïve male beagle dogs (8 months-3 years of age, body weight 8-13 kg) were used in this study. All animals for IV administration had free access to food and water; all animals for PO were fasted overnight prior to dosing and were fed approximately 6 hours after dosing. For the animals in PO group, pentagastrin (6.0 μg/kg, i.m.) was administrated 20 minutes before dosing PO formulation and 1.5 hours after the first pentagastrin dosing. The dosing volume was 0.024 mL/kg, the concentration was 250 μg/mL in DMSO/1 N NaOH/PBS. 10 mL of 0.001 N HCl was used to wash the gavage catheter for each animal. The IV dose solution was prepared in 10% DMA/50% PG/40% HPβCD solution (40% w/v aqueous HPβCD) at a concentration of 1.0 mg/mL. The oral dose suspension was prepared by suspending the compound in 0.5% HPMC/0.1% Tween 80 in distilled water at a concentration of 0.2 mg/mL. Concentrations of IV and PO doses were measured at the end of the study. PK parameters were calculated using the nominal dose values if the measured values were within 20% of the nominal values. Blood samples were collected by venipuncture of peripheral veins except the dosing vein at pre-dose, 5 15, 30 min, 1, 2, 4, 6, 8, 24 and 48 h post-dose. Blood samples were centrifuged and resultant plasma was frozen for bioanalysis. Plasma samples were stored at −80° C. before analysis. Plasma samples were analyzed for compound concentrations using the LC/MS/MS method. Briefly, a 50 μL aliquot of each plasma sample was mixed with 100 μL of acetonitrile that contained an internal standard. The mixture was vortexed and centrifuged. Ten (10) μL of the resulting solution was injected onto a reverse-phase C18 column and the resultant peaks detected on a LC/MS/MS equipped with a turbo ionspray ionization source. Sample concentrations below the limit of quantification (BLQ) were treated as zero for PK calculations. PK parameters were estimated from individual animals using noncompartmental analysis of the concentration-time data (Phoenix WinNonLin software, version 64; Pharsight, Mountain View, CA). The elimination rate constant (k) was calculated as the absolute value of the slope of the linear regression of logarithm (log) of the concentration versus time for the last three data points of the concentration-time profiles. Apparent elimination half-life (t1/2) values were calculated as ln(2)/k. Area under the concentration-time curve (AUC) values were estimated using linear trapezoidal method. AUCt values were calculated from the dosing time to the last measurable concentration. AUC∞ values were calculated as the sum of the corresponding AUCt and the ratio of the last detectable concentration divided by k. Plasma clearance (CL) was calculated from Dose/AUC∞. Mean resident time extrapolated to infinity (MRT∞) was estimated by moment analysis. Vss was calculated from MRT∞×CL. Maximum concentration (Cmax) and time to reach Cmax (tmax) were recorded as observed. As this was a cross-over study, bioavailability was calculated dAUC∞,po/dAUC∞,iv×100% where dAUC was the dose normalized AUC value from the same animal given IV and PO dose. Data for compounds tested are provided in Table D. Compounds tested were prepared in accordance with the synthetic procedures described herein.

[4] = Dog cassette dosing pharmacokinetics; type: in vivo, beagle dogs; settings: male, beagle, plasma, IV
Description: Non-naïve male beagle dogs (8 months to 3 years of age, body weight 8-14 kg) sourced from Jiangsu Johnsen Bioresource CO. and/or Beijing Rixinkeji CO., LTD and/or Beijing Marshall Biotechnology CO., LTD were used in this study. All animals for IV administration had free access to food and water. The IV dose solution was prepared in 10% DMA/50% PG/40% HPβCD solution (40% w/v aqueous HPβCD) at a concentration of 0.2 mg/mL. Concentrations of IV dose was measured at the end of the study. PK parameters were calculated using the nominal dose values if the measured values were within 20% of the nominal values. Blood samples were collected by venipuncture of peripheral veins except the dosing vein at pre-dose, 5 15, 30 min, 1, 2, 4, 6, 8 and 24 h post-dose. Blood samples were centrifuged and resultant plasma was frozen for bioanalysis. Plasma samples were stored at −80° C. before analysis. Plasma samples were analyzed for compound concentrations using the LC/MS/MS method. Briefly, a 50 μL aliquot of each plasma sample was mixed with 100 μL of acetonitrile that contained an internal standard. The mixture was vortexed and centrifuged. Ten (10) μL of the resulting solution was injected onto a reverse-phase C18 column and the resultant peaks detected on a LC/MS/MS equipped with a turbo ionspray ionization source. Sample concentrations below the limit of quantification (BLQ) were treated as zero for PK calculations. PK parameters were estimated from individual animals using noncompartmental analysis of the concentration-time data (Phoenix WinNonLin software, version 64; Pharsight, Mountain View, CA). The elimination rate constant (k) was calculated as the absolute value of the slope of the linear regression of logarithm (log) of the concentration versus time for the last three data points of the concentration-time profiles. Apparent elimination half-life (t1/2) values were calculated as ln(2)/k. Area under the concentration-time curve (AUC) values were estimated using linear trapezoidal method. AUCt values were calculated from the dosing time to the last measurable concentration. AUC∞ values were calculated as the sum of the corresponding AUCt and the ratio of the last detectable concentration divided by k. Plasma clearance (CL) was calculated from Dose/AUC∞. Mean resident time extrapolated to infinity (MRT∞) was estimated by moment analysis. Vss was calculated from MRT∞×CL. Maximum concentration (Cmax) and time to reach Cmax (tmax) were recorded as observed. As this was a cross-over study, bioavailability was calculated dAUC∞,po/dAUC∞,iv×100% where dAUC was the dose normalized AUC value from the same animal given IV and PO dose. Data for compounds tested are provided in Table G. Compounds tested were prepared in accordance with the synthetic procedures described herein.

[5] = Rat single dose pharmacokinetics; type: in vivo, Sprague Dawley rats; settings: male, Sprague Dawley, plasma, IV
Description: Male Sprague Dawley rats were obtained from Zhejiang Vital River Laboratory Animal Technology Co., Ltd. The animals in IV group had free access to water and food. The animals in PO group were fasted overnight before dosing and provided with food 2 hours post dosing. The IV dose solution was prepared in 10% DMA/50% PG/40% HPβCD solution (40% w/v aqueous HPβCD) at a concentration of 1 mg/mL. The oral dosing suspension was prepared by suspending Test Article in 0.5% HPMC/0.1% Tween 80 in water at a concentration 0.2 mg/mL. Concentrations of IV and PO doses were measured at the end of the study. Pharmacokinetic parameters were calculated using the nominal dose values if the measured values were within 20% of the nominal values. Three rats were dosed IV via a bolus injection via caudal vein. Three rats per dose group were dosed by oral gavage. Blood samples were collected from the jugular vein cannula at predose, 5 (IV only), 15, 30 minutes, and 1, 2, 4, 6, and 24 hours post-dose. Blood volumes were replaced with an equal amount of sterile 0.9% saline. Blood samples were centrifuged and the collected plasma was stored at −80° C. for subsequent analysis. Plasma samples were analyzed for Test Article concentrations using a LC/MS/MS method. Briefly, a 50 μL aliquot of each plasma sample was mixed with 100 μL of acetonitrile that contained an internal standard. The mixture was vortexed and centrifuged. Ten (10) […] of the resulting solution was injected onto a reverse-phase C18 column and the resultant peaks detected on a LC/MS/MS equipped with a turbo ionspray ionization source. Sample concentrations below the limit of quantification (BLQ) were treated as zero for pharmacokinetic calculations. Pharmacokinetic parameters were estimated from individual animals using noncompartmental analysis of the concentration-time data (Phoenix WinNonLin software, version 64; Pharsight, Mountain View, CA). The elimination rate constant (k) was calculated as the absolute value of the slope of the linear regression of logarithm (log) of the concentration versus time for the last three data points of the concentration-time profiles. Apparent elimination half-life (t1/2) values were calculated as ln(2)/k. Area under the concentration-time curve (AUC) values were estimated using linear trapezoidal method. AUCt values were calculated from the dosing time to the last measurable concentration. AUC∞ values were calculated as the sum of the corresponding AUCt and the ratio of the last detectable concentration divided by k (AUCt-∞). Plasma clearance (CL) was calculated from Dose/AUC∞. Mean resident time (MRT) was estimated by moment analysis. Volume of distribution at steady state (Vss) was calculated from MRT∞×CL. Maximum concentration (Cmax) and time to reach Cmax (tmax) were recorded as observed. Bioavailability was calculated from the ratio of dose normalized AUC∞,po of individual rats/mean dAUC∞,iv×100% where dAUC was the dose normalized AUC value. Compounds tested were prepared in accordance with the synthetic procedures described herein.

[6] = Monkey cassette dosing pharmacokinetics; type: in vivo; settings: IV

Row | Compound | Projected CL [1] [mL/min/kg] | Projected t½ [1] [h] | CDMF IC15 [2] [nM] | half-life [3] [h] | Projected Vss [1] [L/kg] | clearance [4] [mL/min/kg] | Vd ([4]; read-out: Vss) [L/kg] | half-life ([4]; read-out: t½ (converted)) [h] | clearance [5] [mL/min/kg] | half-life [5] [h] | Vd ([5]; read-out: Vss) [L/kg] | t l/2 [6] [h] | clearance ([6]; male, plasma) [mL/min/kg] | Vd ([6]; male, plasma, read-out: Vss) [L/kg]
1 | O=CN1CC2(C1)C(=O)N(c1ccc(F)cc1F)CC(=O)N2Cc1ccc(Cl)cc1 [Comparator A, 5-(4-chlorobenzyl)-8-(2,4-difluorophenyl)-6,9-dioxo-2,5,8-triazaspiro[3.5]nonane-2-carbaldehyde, reference compound] | 1.44 | 38.7 | 1800 | 39.2 |  |  |  |  |  |  |  |  |  | 
2 | CC(=O)N1CC2(C1)C(=O)N(c1ccc(C#N)cc1F)CC(=O)N2Cc1ccc(C(F)(F)F)cc1 [Comparator D, 4-(2-acetyl-6,9-dioxo-5-(4-(trifluoromethyl)benzyl)-2,5,8-triazaspiro[3.5]nonan-8-yl)-3-fluorobenzonitrile] | 0.96 | 62 | 1100 | 23.7 | 5.16 |  |  |  |  |  |  |  |  | 
3 | O=CN1CC2(C1)C(=O)N([C@H]1CC[C@H](C(F)F)CC1)CC(=O)N2Cc1ccc(C(F)(F)F)cc1 [Comparator E, 8-((1r,4r)-4-(difluoromethyl)cyclohexyl)-6,9-dioxo-5-(4-(trifluoromethyl)benzyl)-2,5,8-triazaspiro[3.5]nonane-2-carbaldehyde] | 1.2 | 51.7 | 1300 | 33.1 | 5.5 |  |  |  |  |  |  |  |  | 
4 | CC(C)N1CC(=O)N(Cc2ccc(F)c(Cl)c2)C2(CN(c3cccnn3)C2)C1=O [Compound 9, 5-(3-chloro-4-fluorobenzyl)-8-isopropyl-2-(pyridazin-3-yl)-2,5,8-triazaspiro[3.5]nonane-6,9-dione] |  |  | 1600 |  |  | 13.9 | 3.08 | 3.65 | 27.4 | 0.925 | 1.64 | 1.59 | 15.2 | 1.88

Reference: US12286437B2, “Cardiac sarcomere inhibitors” (Cytokinetics, Inc., priority 2021, dated 2025)
